Experimental data from ChEMBL document CHEMBL1201862, “PubChem BioAssay data set” (2004).
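All cell lines were grown in 96-well plates and treated with compound for 48 hours. GI50 marks 50% less growth.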 The source made the active and inactive calls. Cut-off read from the data, not from the text of the source: active = GI50 up to about 1.1 µM and inactive = higher.

Key:
Assay in all cases: growth of human tumour cells (NCI), 48 h
HL-60 = system: HL-60
UO-31 = system: UO-31
EKVX = system: EKVX
KM12 = system: KM12
T47D = system: T47D
UACC-62 = system: UACC-62
HOP-92 = system: HOP-92
Malme-3M = system: Malme-3M
SK-MEL-28 = system: SK-MEL-28
MDA-N = system: MDA-N
NCI-H522 = system: NCI-H522
SW-620 = system: SW-620
SF-268 = system: SF-268
OVCAR-8 = system: OVCAR-8
BT-549 = system: BT-549
M14 = system: M14
OVCAR-5 = system: OVCAR-5
CCRF-CEM = system: CCRF-CEM
MDA-MB-231 = system: MDA-MB-231
HCT-15 = system: HCT-15
A498 = system: A498
NCI-H460 = system: NCI-H460
HCT-116 = system: HCT-116
DU-145 = system: DU-145
ACHN = system: ACHN
U-251 = system: U-251
NCI-H226 = system: NCI-H226
UACC-257 = system: UACC-257
K562 = system: K562
MDA-MB-435 = system: MDA-MB-435
SK-OV-3 = system: SK-OV-3
HT-29 = system: HT-29
A549 = system: A549
MCF7 = system: MCF7
RPMI-8226 = system: RPMI-8226
SNB-75 = system: SNB-75
NCI/ADR-RES = system: NCI/ADR-RES
MOLT-4 = system: MOLT-4
PC-3 = system: PC-3
786-0 = system: 786-0
SF-295 = system: SF-295
OVCAR-4 = system: OVCAR-4
RXF 393 = system: RXF 393
LOX IMVI = system: LOX IMVI
COLO 205 = system: COLO 205
SR = system: SR
TK-10 = system: TK-10
SN12C = system: SN12C
Hs-578T = system: Hs-578T
OVCAR-3 = system: OVCAR-3
SK-MEL-2 = system: SK-MEL-2
HOP-62 = system: HOP-62
SK-MEL-5 = system: SK-MEL-5
SNB-19 = system: SNB-19
CAKI-1 = system: CAKI-1
NCI-H23 = system: NCI-H23
IGROV-1 = system: IGROV-1
SF-539 = system: SF-539

CCNC(C)(C)C(SS)c1ccc(Br)cc1 (configuration not stated)
GI50 (HL-60): 21.9 µM (inactive) | GI50 (UO-31): 79.1 µM (inactive) | GI50 (EKVX): > 100 µM (inactive) | GI50 (KM12): > 100 µM (inactive) | GI50 (T47D): 24 µM (inactive) | GI50 (UACC-62): 88.9 µM (inactive) | GI50 (HOP-92): > 100 µM (inactive) | GI50 (Malme-3M): > 100 µM (inactive) | GI50 (SK-MEL-28): > 100 µM (inactive) | GI50 (MDA-N): 45.6 µM (inactive) | GI50 (NCI-H522): 18.4 µM (inactive) | GI50 (SW-620): 22.4 µM (inactive) | GI50 (SF-268): 60.8 µM (inactive) | GI50 (OVCAR-8): > 100 µM (inactive) | GI50 (BT-549): > 100 µM (inactive) | GI50 (M14): 59.2 µM (inactive) | GI50 (OVCAR-5): > 100 µM (inactive) | GI50 (CCRF-CEM): 20.3 µM (inactive) | GI50 (MDA-MB-231): > 100 µM (inactive) | GI50 (HCT-15): > 100 µM | GI50 (A498): > 100 µM (inactive) | GI50 (NCI-H460): 31.1 µM (inactive) | GI50 (HCT-116): 29.6 µM (inactive) | GI50 (DU-145): > 100 µM (inactive) | GI50 (ACHN): > 100 µM (inactive) | GI50 (U-251): 44.3 µM (inactive) | GI50 (NCI-H226): > 100 µM (inactive) | GI50 (UACC-257): 28.3 µM (inactive) | GI50 (K562): 36.1 µM (inactive) | GI50 (MDA-MB-435): 34.8 µM (inactive) | GI50 (SK-OV-3): > 100 µM (inactive) | GI50 (HT-29): 25.8 µM (inactive) | GI50 (A549): > 100 µM (inactive) | GI50 (MCF7): 39.4 µM (inactive) | GI50 (RPMI-8226): 27.8 µM (inactive) | GI50 (SNB-75): > 100 µM (inactive) | GI50 (NCI/ADR-RES): > 100 µM (inactive) | GI50 (MOLT-4): 21.1 µM (inactive) | GI50 (PC-3): 60.5 µM (inactive) | GI50 (786-0): 21.3 µM (inactive) | GI50 (SF-295): > 100 µM (inactive) | GI50 (OVCAR-4): 44.5 µM (inactive) | GI50 (RXF 393): 46 µM (inactive) | GI50 (LOX IMVI): 26.1 µM (inactive) | GI50 (COLO 205): 62.1 µM (inactive) | GI50 (SR): 30.4 µM (inactive) | GI50 (TK-10): 53.3 µM (inactive) | GI50 (SN12C): 32.6 µM (inactive) | GI50 (Hs-578T): > 100 µM (inactive) | GI50 (OVCAR-3): 46.6 µM (inactive) | GI50 (SK-MEL-2): > 100 µM (inactive) | GI50 (HOP-62): 63.1 µM (inactive) | GI50 (SK-MEL-5): 91.4 µM (inactive) | GI50 (SNB-19): > 100 µM (inactive) | GI50 (CAKI-1): 78 µM (inactive) | GI50 (NCI-H23): > 100 µM (inactive) | GI50 (IGROV-1): > 100 µM (inactive) | GI50 (SF-539): 38 µM (inactive)

CC(=O)OCC1OC(n2c3c(c(-c4ccc(C)cc4)c(C#N)c2=S)C(=O)CC(C)(C)C3)C(OC(C)=O)C(OC(C)=O)C1OC(C)=O (configuration not stated)
GI50 (HL-60): 23.5 µM (inactive) | GI50 (UO-31): 58.5 µM (inactive) | GI50 (KM12): 36.4 µM (inactive) | GI50 (T47D): > 10 µM (inactive) | GI50 (UACC-62): 18.9 µM (inactive) | GI50 (HOP-92): 45.5 µM (inactive) | GI50 (Malme-3M): > 100 µM (inactive) | GI50 (SK-MEL-28): 26.2 µM (inactive) | GI50 (MDA-N): 15.7 µM (inactive) | GI50 (NCI-H522): 30.8 µM (inactive) | GI50 (SW-620): 46 µM (inactive) | GI50 (SF-268): 28.6 µM (inactive) | GI50 (OVCAR-8): 36.4 µM (inactive) | GI50 (BT-549): 19.3 µM (inactive) | GI50 (M14): 35.5 µM (inactive) | GI50 (OVCAR-5): > 100 µM (inactive) | GI50 (CCRF-CEM): 31.6 µM (inactive) | GI50 (MDA-MB-231): 23.4 µM (inactive) | GI50 (A498): 32.1 µM (inactive) | GI50 (NCI-H460): 42.2 µM (inactive) | GI50 (HCT-116): 34.8 µM (inactive) | GI50 (DU-145): 50.4 µM (inactive) | GI50 (ACHN): 39 µM (inactive) | GI50 (U-251): 30.3 µM (inactive) | GI50 (NCI-H226): 23.3 µM (inactive) | GI50 (UACC-257): 18.5 µM (inactive) | GI50 (K562): 22.7 µM (inactive) | GI50 (MDA-MB-435): 27 µM (inactive) | GI50 (HT-29): 27.3 µM (inactive) | GI50 (A549): 50.4 µM (inactive) | GI50 (MCF7): 25.6 µM (inactive) | GI50 (RPMI-8226): 27.5 µM (inactive) | GI50 (SNB-75): 23.9 µM (inactive) | GI50 (NCI/ADR-RES): 57.4 µM (inactive) | GI50 (MOLT-4): 25.1 µM (inactive) | GI50 (PC-3): 18.3 µM (inactive) | GI50 (786-0): 33.7 µM (inactive) | GI50 (SF-295): 25.5 µM (inactive) | GI50 (OVCAR-4): > 10 µM (inactive) | GI50 (RXF 393): 23.3 µM (inactive) | GI50 (LOX IMVI): 13.3 µM (inactive) | GI50 (COLO 205): 37.3 µM (inactive) | GI50 (SR): 24.1 µM (inactive) | GI50 (TK-10): > 100 µM (inactive) | GI50 (SN12C): 17.6 µM (inactive) | GI50 (Hs-578T): 47.5 µM (inactive) | GI50 (OVCAR-3): 70 µM (inactive) | GI50 (HOP-62): 62.5 µM (inactive) | GI50 (SK-MEL-5): 26.9 µM (inactive) | GI50 (SNB-19): > 100 µM (inactive) | GI50 (CAKI-1): 52.5 µM (inactive) | GI50 (NCI-H23): 42.8 µM (inactive) | GI50 (IGROV-1): 50.1 µM (inactive) | GI50 (SF-539): 23.3 µM (inactive)
